# Results from patent US6479502B1, “Hydroxamic acid derivatives as proteinase inhibitors” (British Biotech Pharmaceuticals, priority 1998, dated 2002).
# Experiments:
# collagenase-3 (MMP-13) = collagenase-3 (MMP-13) (Homo sapiens, UniProt P45452); assay: Inhibition of collagenase-3 (MMP-13); assay type: biochemical; conditions: statement in words, no value given
# Procedure: The potency of compounds of the invention as inhibitors of collagenase may be determined by the procedure of Cawston and Barrett, (Anal. Biochem., 99, 340-345, 1979), whereby a 1mM solution of the compound being tested, or a dilution thereof, is incubated at 37° for 16 hours with collagen and collagenase (buffered with 25mM Hepes, pH 7.5 containing 5mM CaCl2, 0.05% Brij 35 and 0.02% NaN3). The collagen is acetylated ^14C collagen prepared by the method of Cawston and Murphy, (Methods in Enzymology, 80, 711, 1981). The samples are centrifuged to sediment undigested collagen, and an aliquot of the radioactive supernatant removed for assay on a scintillation counter as a measure of hydrolysis. The collagenase activity in the presence of 1mM of the test compound, or a dilution thereof, is compared to activity in a control devoid of inhibitor and the result reported as that of inhibitor concentration effecting 50% inhibition of the collagenase activity (IC50). The potency of compounds of the invention as inhibitors of stromelysin may be determined by the procedure of Cawston et al, (Biochem. J., 195, 159-165, 1981), whereby a 1mM solution of the compound being tested, or a dilution thereof, is incubated at 37° for 16 hours with stromelysin and ^14C acetylate casein (buffered with 25mM Hepes, pH 7.5 containing 5mM CaCl2, 0.05% Brij 35 and 0.02% NaN3). […]
# gelatinase A = target: T1, gelatinase A (Homo sapiens, UniProt P08253); assay: Inhibition of gelatinase A (72 kDa gelatinase); assay type: biochemical; conditions: statement in words, no value given
# T1 construct: endogenous in cells; host or cells: RPMI-7951 cells (endogenous enzyme, purified by gelatin-agarose chromatography)
# T1 sequence (P08253 110-660): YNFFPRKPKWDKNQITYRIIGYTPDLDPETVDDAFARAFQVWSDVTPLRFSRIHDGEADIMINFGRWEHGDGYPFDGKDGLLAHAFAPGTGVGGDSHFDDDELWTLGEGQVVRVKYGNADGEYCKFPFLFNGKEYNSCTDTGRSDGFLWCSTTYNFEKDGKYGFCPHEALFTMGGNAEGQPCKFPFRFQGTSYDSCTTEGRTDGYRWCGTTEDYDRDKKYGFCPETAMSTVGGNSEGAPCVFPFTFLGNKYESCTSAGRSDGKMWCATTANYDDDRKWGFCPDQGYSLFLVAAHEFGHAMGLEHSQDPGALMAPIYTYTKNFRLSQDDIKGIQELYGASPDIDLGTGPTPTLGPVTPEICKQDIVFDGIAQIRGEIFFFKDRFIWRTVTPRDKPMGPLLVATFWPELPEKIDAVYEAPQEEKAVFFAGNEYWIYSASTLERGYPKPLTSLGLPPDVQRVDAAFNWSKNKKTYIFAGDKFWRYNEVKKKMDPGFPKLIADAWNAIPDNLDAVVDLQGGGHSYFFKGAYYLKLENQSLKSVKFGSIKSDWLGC
# Procedure: The potency of compounds of the invention as inhibitors of 72 kDa gelatinase may be determined by a procedure based on the method of Sellers et. al, Biochem. J., 171, 493-496 (1979). 72 kDa gelatinase, derived from RPMI-7951 cells is purified by gelatin-agarose chromatography. The enzyme is activated by incubation with aminophenyl mercuric acetate and approximately 0.05 units is incubated with 50μg [^14C]-radiolabellet gelatin in an appropriate buffer for 16 hours at 37° C. At the end of the incubation 50μg bovine serum albumin, together with trichloroacetic acid (final concentration 16%) are added to stop the reaction and to precipitate any undegraded substrate. The reaction tubes are placed on ice for 15 minutes before centrifugation at 10,000g for 15 minutes to sediment the precipitated substrate. A 200μl aliquot of the reaction supernatant is removed and the radioactivity determined by liquid scintillation counting. The effect of the inhibitors is determined by reference to a dose response curve. The IC50 (the concentration of inhibitor required to cause a 50% decrease in enzyme activity) is obtained by fitting a curve to the data and computing the concentration of inhibitor required to achieve 50% inhibition of the enzyme. For each IC50 determination, the effect on gelatinase activity of at least 8 concentrations of the inhibitor are examined. […]
inhibitor of collagenase-3 (MMP-13) (collagenase-3 (MMP-13)),inhibitor of gelatinase A (gelatinase A),SMILES
inhibitor of collagenase-3 (MMP-13),–,"O=C(CC(Cc1ccccc1)S(=O)(=O)N1CCC(COc2ccc(F)cc2)CC1)NO (centres unmarked) [Example 6, 3-[4-(4-Fluoro-phenoxymethyl)-piperidine-1-sulfonyl]-N-hydroxy-4-phenyl-butyramide]"
–,inhibitor of gelatinase A,"O=C(CC(Cc1ccccc1)S(=O)(=O)N1CCC(Cc2ccccc2)CC1)NO (centres unmarked) [Example 2, 3-(4-Benzyl-piperidine-1-sulfonyl)-N-Hydroxy-4-phenyl-butyramide]"
